Assay results reported in patent publication US3991202A, “Imidazolium salts” (Janssen Pharmaceutica N.V., priority 1974, dated 1976).
Where two headings read alike, the source gives them in different places.

Key:
Assay in all cases: Antibacterial growth inhibition in phenol red dextrose broth
Format in all cases: cell-based
[1] = system: Staphylococcus hemolyticus; conditions: 168 h, Staph., tested at 100, 10, 1 μg/ml, read-out: Concentration in μ g for 100% Growth Inhibition
Method: (§1) The tests on bacteria were performed on cultures on phenol red dextrose broth medium (Difco). By using decimal dilution techniques described for the tests for antifungal activity, test media containing 100 μg, 10 μg and 1 μg of imidazolium salt per milliliter of medium were obtained. The inoculum consisted of a platinum loop (5 mm diameter) from a 24 hour broth culture. Forty-eight hours after incubation, subcultures were made from each culture for the determination of antibacterial activity of the imidazolium salts. After seven days of incubation, observations were made to determine the presence or absence of bacterial growth.

Pseudomonas aeruginosa = conditions: 168 h, Ps. aer., read-out: Concentration in μ g for 100% Growth Inhibition
Method: as §1

Escherichia coli = conditions: 168 h, E. coli, tested at 100, 10, 1 μg/ml, read-out: Concentration in μ g for 100% Growth Inhibition
Method: as §1

[2] = system: Salmonella pullorum gallinarum; conditions: Salmonella enterica, 168 h; Sp. G.; tested at 100, 10, 1 μg/ml; read-out: Concentration in μ g for 100% Growth Inhibition
Method: as §1

Streptococcus pyogenes = conditions: 168 h, Strep., tested at 100, 10, 1 μg/ml, read-out: Concentration in μ g for 100% Growth Inhibition
Method: as §1

Erysipelothrix insidiosa = conditions: Erysipelothrix rhusiopathiae, 168 h; E. ins.; tested at 100, 10, 1 μg/ml; read-out: Concentration in μ g for 100% Growth Inhibition
Method: as §1

| Compound | MIC [1] [µg/mL] | MIC (Pseudomonas aeruginosa; tested at 100, 10, 1 μg/ml) [µg/mL] | MIC (Escherichia coli) [µg/mL] | MIC [2] [µg/mL] | MIC (Streptococcus pyogenes) [µg/mL] | MIC (Erysipelothrix insidiosa) [µg/mL] | MIC (Pseudomonas aeruginosa; growth observed at 100 μg/ml) [µg/mL] |
| --- | --- | --- | --- | --- | --- | --- | --- |
| Cc1cc(Cl)ccc1NC(=O)CCn1cc[n+](CC(OCc2ccc(Cl)cc2Cl)c2ccc(Cl)cc2Cl)c1.[Cl-] (stereo not drawn) [(CH2)2CONHC6H32,4(CH3,Cl), 1-{2-[N-(4-chloro-o-tolyl)carbamoyl]ethyl}-3-[2,4-dichloro-β-(2,4-dichlorobenzyloxy)phenethyl]imidazolium chloride] | 1 | 100 | 100 | 10 | 1 | 1 | – |
| Clc1ccc(COC(C[n+]2ccn(CCNc3ccccc3)c2)c2ccc(Cl)cc2Cl)c(Cl)c1.[Br-] (stereo not drawn) [(CH2)2NHC6H5, 1-(2-Anilinoethyl)-3-[2,4-dichloro-β-(2,4-dichlorobenzyloxy)phenethyl]imidazolium bromide] | 1 | 100 | 10 | 10 | 1 | 1 | – |
| Clc1ccc(COC(C[n+]2ccn(CCNc3c(Cl)cccc3Cl)c2)c2ccc(Cl)cc2Cl)c(Cl)c1.O.[Br-] (stereo not drawn) [(CH2)2NHC6H32,6(Cl)2, 1-[2-(2,6-Dichloroanilino)ethyl]-3-[2,4-dichloro-β-(2,4-dichlorobenzyloxy)phenethyl]imidazolium bromide hydrate] | 1 | 100 | 10 | 10 | 1 | 1 | – |
| CCCCOC(Cn1cc[n+](CC(=O)Nc2ccc(F)cc2)c1)c1ccccc1Cl (stereo not drawn) [C6H4oCl/nC4H9/CH2CONHC6H4pF] | 100 | 100 | 100 | 100 | 10 | 10 | – |
| Cc1ccccc1NC(=O)C[n+]1ccn(CC(OCc2ccc(Cl)cc2)c2ccc(Cl)cc2)c1 (stereo not drawn) [C6H4pCl/CH2C6H4pCl/CH2CONHC6H4oCH3, 1-[p-Chloro-β-(p-chlorobenzyloxy)phenethyl]-3-(N-o-toylcarbamoylmethyl)imidazolium chloride] | 10 | 100 | 100 | 100 | 10 | 10 | – |
| Cc1ccccc1NC(=O)C[n+]1ccn(CC(OCc2ccc(Cl)cc2Cl)c2ccc(Cl)cc2)c1 (stereo not drawn) [C6H4pCl/CH2C6H32,4(Cl)2/CH2CONHC6H4oCH3, 1-[p-Chloro-β-(2,4-dichlorobenzyloxy)phenethyl]-3-(N-o-tolylcarbamoylmethyl)imidazolium chloride hydrate] | 100 | 100 | 100 | 10 | 1 | 1 | – |
| O=C(C[n+]1ccn(CC(OCc2ccc(Cl)cc2Cl)c2ccc(Cl)cc2)c1)Nc1ccc(F)cc1 (stereo not drawn) [C6H4pCl/CH2C6H32,4(Cl)2/CH2CONHC6H4pF, 1-[p-chloro-β-(2,4-dichlorobenzyloxy)phenethyl]-3-[N-(p-fluorophenyl)carbamoyl-methyl]imidazolium chloride] | 10 | 100 | 10 | 10 | 1 | 1 | – |
| Clc1ccc(COC(C[n+]2ccn(Cc3ccccc3)c2)c2ccccc2)cc1.[Br-] (stereo not drawn) [C6H5/CH2C6H4pCl/CH2C6H5, 1-Benzyl-3-[β-(p-chlorobenzyloxy)phenethyl]imidazolium bromide] | 10 | – | 100 | 100 | 10 | 100 | > 100 |
| Cc1ccc(C[n+]2ccn(CC(OCc3ccc(Cl)cc3Cl)c3ccc(Cl)cc3Cl)c2)cc1.[Br-] (stereo not drawn) [CH2C6H4pCH3, 1-[2,4-Dichloro-β-(2,4-dichlorobenzyloxy)phenethyl]-3-(p-methylbenzyl)imidazolium bromide] | 1 | 100 | 10 | 100 | 1 | 10 | – |
| Fc1ccc(C[n+]2ccn(CC(OCc3ccc(Cl)cc3Cl)c3ccc(Cl)cc3Cl)c2)cc1.[I-] (stereo not drawn) [CH2C6H4pF, 1-[2,4-Dichloro-β-(2,4-dichlorobenzyloxy)phenethyl]-3-(p-fluorobenzyl)-imidazolium iodide] | 1 | 100 | 100 | 10 | 1 | 10 | – |
| OC(Cn1cc[n+](CC(OCc2ccc(Cl)cc2Cl)c2ccc(Cl)cc2Cl)c1)c1ccc(Cl)cc1.[Br-] (stereo not drawn) [CH2CHOHC6H4pCl, 1-(p-chloro-β-hydroxyphenethyl)-3-[2,4-dichloro-β-(2,4-dichlorobenzyloxy)phenethyl]imidazolium bromide] | 1 | 100 | 10 | 10 | 1 | 1 | – |
| COc1ccccc1NC(=O)C[n+]1ccn(CC(OCc2ccc(Cl)cc2Cl)c2ccc(Cl)cc2Cl)c1 (stereo not drawn) [CH2CONHC6H4oOCH3, 1-[2,4-dichloro-β-(2,4-dichlorobenzyloxy)phenethyl]-3-[N-(o-methoxyphenyl)carbamoylmethyl]imidazolium chloride hydrate] | 1 | 100 | 10 | 10 | 1 | 1 | – |
| O=C(C[n+]1ccn(CC(OCc2ccc(Cl)cc2Cl)c2ccc(Cl)cc2Cl)c1)Nc1ccc(Cl)cc1 (stereo not drawn) [CH2CONHC6H4p(Cl), 1-[N-(p-chlorophenyl)carbamoylmethyl]-3-[2,4-dichloro-β-(2,4-dichlorobenzyloxy)phenethyl]imidazolium chloride hydrate] | 10 | 100 | 10 | 100 | 1 | 1 | – |
| O=C(C[n+]1ccn(CC(OCc2ccc(Cl)cc2Cl)c2ccc(Cl)cc2Cl)c1)Nc1ccc(F)cc1 (stereo not drawn) [CH2CONHC6H4pF, 1-[2,4-dichloro-β-(2,4-dichlorobenzyloxy)phenethyl]-3-[N-(p-fluorophenyl)carbamoylmethyl]imidazolium chloride] | 1 | 100 | 10 | 10 | 1 | 1 | – |
| COc1ccc(NC(=O)C[n+]2ccn(CC(OCc3ccc(Cl)cc3Cl)c3ccc(Cl)cc3Cl)c2)cc1 (stereo not drawn) [CH2CONHC6H4pOCH3] | 1 | 100 | 10 | 10 | 1 | 1 | – |
| Cc1ccc(CNC(=O)C[n+]2ccn(CC(OCc3ccc(Cl)cc3Cl)c3ccc(Cl)cc3Cl)c2)cc1 (stereo not drawn) [CH2CONHCH2C6H4pCH3, 1-[2,4-Dichloro-β-(2,4-dichlorobenzyloxy)phenethyl]-3-[N-(p-methylbenzyl)carbamoylmethyl]imidazolium chloride] | 10 | 100 | 10 | 10 | 10 | 10 | – |
| CC(C(=O)Nc1cccc(Cl)c1)[n+]1ccn(CC(OCc2ccc(Cl)cc2Cl)c2ccc(Cl)cc2Cl)c1 (stereo not drawn) [CH(CH3)CONHC6H4mCl, 1-{1-[N-(m-Chlorophenyl)carbamoyl]ethyl 56-3-[2,4-dichloro-β-(2,4-dichlorobenzyloxy)phenethyl]imidazolium bromide] | 1 | 100 | 100 | 100 | 1 | 1 | – |
| Fc1ccc(C(c2ccc(Cl)cc2)[n+]2ccn(CC(OCc3ccc(Cl)cc3Cl)c3ccc(Cl)cc3Cl)c2)cc1 (stereo not drawn) [drawing 69] | 1 | 100 | 100 | 100 | 1 | 1 | – |
